Measured values as given in ChEMBL document CHEMBL1201862, “PubChem BioAssay data set” (2004).
Active and inactive are the calls of the source.

What was measured:
Cytochrome P450 2C9 = Cytochrome P450 2C9 (Homo sapiens, UniProt P11712)
Cytochrome P450 3A4 = Cytochrome P450 3A4 (Homo sapiens, UniProt P08684);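 further: CYP3A4 tested as one member of a cytochrome P450 panel screen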
Cytochrome P450 1A2 = biological target: T1, Cytochrome P450 1A2 (Homo sapiens, UniProt P05177);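 further: PubChem cytochrome P450 panel assay, CYP1A2 panel member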
T1 sequence (P05177 whole entry): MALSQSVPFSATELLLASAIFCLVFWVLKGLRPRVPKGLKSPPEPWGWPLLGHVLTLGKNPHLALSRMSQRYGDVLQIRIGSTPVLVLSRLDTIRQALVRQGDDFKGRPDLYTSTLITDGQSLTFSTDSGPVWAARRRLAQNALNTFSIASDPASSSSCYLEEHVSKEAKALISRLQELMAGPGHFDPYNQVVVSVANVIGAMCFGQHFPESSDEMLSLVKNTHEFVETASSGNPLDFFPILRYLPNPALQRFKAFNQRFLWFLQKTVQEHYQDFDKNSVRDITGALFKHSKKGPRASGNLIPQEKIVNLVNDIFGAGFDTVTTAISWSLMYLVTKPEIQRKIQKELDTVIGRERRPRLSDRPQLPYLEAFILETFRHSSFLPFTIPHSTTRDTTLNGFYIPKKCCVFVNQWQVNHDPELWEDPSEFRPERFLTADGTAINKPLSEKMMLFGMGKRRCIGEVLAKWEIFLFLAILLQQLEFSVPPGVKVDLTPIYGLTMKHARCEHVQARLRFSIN

Protein skinhead-1 = biological target: T2, Protein skinhead-1 (Caenorhabditis elegans, UniProt P34707); assay type: functional
T2 sequence (P34707 whole entry): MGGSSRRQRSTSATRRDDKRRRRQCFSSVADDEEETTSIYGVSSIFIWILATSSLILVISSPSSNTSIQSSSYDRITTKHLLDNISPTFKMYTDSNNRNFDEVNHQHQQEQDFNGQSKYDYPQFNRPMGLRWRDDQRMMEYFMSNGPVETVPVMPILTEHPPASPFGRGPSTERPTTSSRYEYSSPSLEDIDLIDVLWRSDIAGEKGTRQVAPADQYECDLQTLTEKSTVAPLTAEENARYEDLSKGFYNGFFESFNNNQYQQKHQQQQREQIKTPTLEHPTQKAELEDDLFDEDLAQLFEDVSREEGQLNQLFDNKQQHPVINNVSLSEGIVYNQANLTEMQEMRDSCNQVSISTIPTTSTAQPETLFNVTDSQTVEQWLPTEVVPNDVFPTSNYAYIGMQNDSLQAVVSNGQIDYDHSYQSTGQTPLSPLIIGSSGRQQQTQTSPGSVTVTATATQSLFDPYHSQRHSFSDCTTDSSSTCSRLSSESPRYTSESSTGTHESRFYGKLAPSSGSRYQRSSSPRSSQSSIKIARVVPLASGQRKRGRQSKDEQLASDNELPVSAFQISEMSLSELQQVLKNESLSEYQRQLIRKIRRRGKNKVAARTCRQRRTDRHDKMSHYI

Cytochrome P450 2C19 = Cytochrome P450 2C19 (Homo sapiens, UniProt P33261); test: Cytochrome panel assay with activity outcomes. Panel member name: p450-cyp2c19 Compounds with AC50 equal or less than 10 uM are considered active; assay type: functional
Paired box protein Pax-8 = Paired box protein Pax-8 (Homo sapiens, UniProt Q06710); test: PAX8 transcriptional activity inhibition in RMG-I – RMG-I cells, luciferase, cherry-pick, dose response (AID 687027); assay type: functional, cell-based;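 further: luciferase reporter driven by Pax8 target thyroperoxidase promoter measured by SteadyGlo luminescence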
H4 = test: Luminescence Cell-Based Dose Response HTS to Identify Activators of 5'UTR Stem-Loop Driven Prion Protein mRNA Translation in H4 Neuroglioblastoma Cells. [Related pubchem assays: 1829 (Project Summary), 1814 (Primary HTS)]; assay type: functional; conditions: Homo sapiens
[1] = Luminescence Cell-Based Dose Confirmation HTS to Identify Activators of 5'UTR Stem-Loop Driven Alpha-Synuclein mRNA Translation in H4 Neuroglioblastoma Cells. [Related pubchem assays: 1829 (Project Summary), 1814 (Primary HTS)]; assay type: functional
[2] = Luminescence Cell-Based Dose Response HTS to Identify Activators of Luciferase Translation or Activity in H4 […] Cells. [Related pubchem assays: 1829 (Project Summary), 1814 (Primary HTS)]; assay type: functional

Cytochrome P450 3A4, sequence (P08684 whole entry): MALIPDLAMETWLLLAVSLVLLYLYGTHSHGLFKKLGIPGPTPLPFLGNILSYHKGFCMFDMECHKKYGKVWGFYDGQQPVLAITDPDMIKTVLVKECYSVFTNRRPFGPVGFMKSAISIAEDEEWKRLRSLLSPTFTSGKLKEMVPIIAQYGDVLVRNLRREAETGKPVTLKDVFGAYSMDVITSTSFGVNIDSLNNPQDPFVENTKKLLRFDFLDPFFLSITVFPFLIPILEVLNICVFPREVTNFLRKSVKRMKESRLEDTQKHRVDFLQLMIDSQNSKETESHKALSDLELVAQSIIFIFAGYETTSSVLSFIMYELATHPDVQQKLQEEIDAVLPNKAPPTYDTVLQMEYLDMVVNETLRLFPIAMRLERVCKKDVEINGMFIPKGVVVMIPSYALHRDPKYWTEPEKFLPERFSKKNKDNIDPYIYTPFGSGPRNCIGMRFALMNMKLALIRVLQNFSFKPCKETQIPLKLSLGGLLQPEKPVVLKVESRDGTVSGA
Cytochrome P450 2C9, sequence (P11712 whole entry): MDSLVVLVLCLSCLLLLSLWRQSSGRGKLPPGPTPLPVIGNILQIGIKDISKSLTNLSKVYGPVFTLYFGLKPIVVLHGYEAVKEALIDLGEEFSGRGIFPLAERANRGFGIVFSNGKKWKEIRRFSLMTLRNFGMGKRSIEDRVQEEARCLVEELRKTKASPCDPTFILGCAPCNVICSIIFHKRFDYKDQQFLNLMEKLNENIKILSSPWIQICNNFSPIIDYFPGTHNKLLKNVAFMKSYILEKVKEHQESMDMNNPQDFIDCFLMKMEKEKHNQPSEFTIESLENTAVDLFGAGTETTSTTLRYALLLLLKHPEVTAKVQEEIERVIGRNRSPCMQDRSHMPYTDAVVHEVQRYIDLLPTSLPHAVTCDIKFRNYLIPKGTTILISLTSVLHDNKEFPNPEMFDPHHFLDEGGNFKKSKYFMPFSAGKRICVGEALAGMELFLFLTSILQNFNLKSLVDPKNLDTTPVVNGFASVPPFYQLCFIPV
Cytochrome P450 2C19, sequence (P33261 whole entry): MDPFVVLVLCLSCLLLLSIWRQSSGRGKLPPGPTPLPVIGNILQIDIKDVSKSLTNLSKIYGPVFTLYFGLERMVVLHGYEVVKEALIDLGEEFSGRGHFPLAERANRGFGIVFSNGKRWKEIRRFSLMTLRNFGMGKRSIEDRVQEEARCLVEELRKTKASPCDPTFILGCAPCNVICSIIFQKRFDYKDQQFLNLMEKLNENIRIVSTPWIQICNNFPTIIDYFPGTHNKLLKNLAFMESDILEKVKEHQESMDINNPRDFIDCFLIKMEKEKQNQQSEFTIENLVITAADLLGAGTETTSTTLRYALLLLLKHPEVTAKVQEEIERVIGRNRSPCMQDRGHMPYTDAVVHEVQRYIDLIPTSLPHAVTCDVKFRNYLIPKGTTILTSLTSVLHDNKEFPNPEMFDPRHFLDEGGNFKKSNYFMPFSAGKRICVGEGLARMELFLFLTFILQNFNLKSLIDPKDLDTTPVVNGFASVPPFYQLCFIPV
Paired box protein Pax-8, sequence (Q06710 whole entry): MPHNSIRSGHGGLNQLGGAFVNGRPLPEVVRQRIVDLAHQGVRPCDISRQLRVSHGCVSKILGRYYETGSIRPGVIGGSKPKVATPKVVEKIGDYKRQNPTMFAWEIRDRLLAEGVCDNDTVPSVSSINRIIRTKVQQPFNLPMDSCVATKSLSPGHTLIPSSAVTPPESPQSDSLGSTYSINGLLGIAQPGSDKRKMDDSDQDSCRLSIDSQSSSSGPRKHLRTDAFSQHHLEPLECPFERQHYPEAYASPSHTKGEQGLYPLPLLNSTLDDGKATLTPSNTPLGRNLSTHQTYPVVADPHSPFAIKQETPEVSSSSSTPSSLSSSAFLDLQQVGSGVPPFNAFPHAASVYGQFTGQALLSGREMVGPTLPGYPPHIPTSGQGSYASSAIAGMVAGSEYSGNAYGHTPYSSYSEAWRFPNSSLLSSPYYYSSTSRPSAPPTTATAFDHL

Nc1nc(SCc2ccccc2)c2ncn(Cc3ccccc3)c2n1
AC50 (Cytochrome P450 2C9): 3.16 µM (inconclusive)
AC50 (Cytochrome P450 3A4): 3.98 µM (inconclusive)
AC50 (Cytochrome P450 1A2): 0.251 µM (inconclusive)

COc1cc(-c2nnc(COC(=O)c3c4c(nc5ccccc35)CCCC4)o2)cc(OC)c1OC
AC50 (Cytochrome P450 1A2): 14.1 µM (inconclusive)

COc1ccccc1NC(=O)CSc1nnc(-c2ccncc2)o1
IC50 (Protein skinhead-1): > 100 µM (inactive)

N#Cc1c(NC(=O)CCC(=O)O)ccc2ccccc12
AC50 (Cytochrome P450 2C19): inconclusive

Cn1c(S)nnc1Cc1c[nH]c2ccccc12
IC50 (Protein skinhead-1): > 100 µM (inactive)

Cc1cc(C(=O)CSC(=S)SC(C)(C)C)ccc1Cl
AC50 (Cytochrome P450 2C9): 5.01 µM (inconclusive)
AC50 (Cytochrome P450 3A4): 3.16 µM (inconclusive)

Cc1ccc2c[nH]nc2c1NC(=S)NC(=O)c1ccccc1
AC50 (Cytochrome P450 2C19; read-out: AC50): 11.2 µM (inconclusive)

CC(=O)N1CCC2(CC1)CN(C(=O)Nc1cccc(C#N)c1)C2
AC50 (Cytochrome P450 1A2): 12.6 µM (inconclusive)

CN1CCc2nc(N)nc(-c3nc(N)nc4c3CN(C)CC4)c2C1
AC50 (Cytochrome P450 2C19): inconclusive

CCC[C@@H]1C[C@@]1(CCC)C(NC(=O)c1cccs1)c1ccc(Cl)cc1 (stereo partly specified)
AC50 (Cytochrome P450 2C9): 5.01 µM (inconclusive)
AC50 (Cytochrome P450 1A2): 10 µM (inconclusive)

COc1ccc(CNC(=O)CN(CC2CCCO2)C(=O)CNS(=O)(=O)c2ccccc2)cc1 (stereo unspecified)
AC50 (Cytochrome P450 2C9): 22.4 µM (inconclusive)
AC50 (Cytochrome P450 3A4): 3.98 µM (inconclusive)

Cc1ccc(F)c(C2C3C=CCC(c4cccc(-c5ccc(N(C)C)cc5)c4)C3C(=O)N2Cc2ccccc2)c1 (stereo unspecified)
IC50 (Protein skinhead-1): > 100 µM (inactive)

CC(NC(=O)c1cc(COc2ccccc2)on1)c1nccs1 (stereo unspecified)
IC50 (Protein skinhead-1): > 100 µM (inactive)

CCOc1cccc(CNCCNC(=O)c2nonc2N)c1
AC50 (Cytochrome P450 3A4): 5.01 µM (inconclusive)
AC50 (Cytochrome P450 1A2): 39.8 µM (inconclusive)

O=c1cnc2cnc(Oc3ccccc3)nc2n1C1CC1
AC50 (Cytochrome P450 2C19; read-out: AC50): 39.8 µM (inconclusive)

CCOC(=O)C1=C(N)Oc2ccc(Br)cc2[C@@H]1[C@@H](C#N)C(=O)OCC
AC50 (Cytochrome P450 2C19; read-out: AC50): 25.1 µM (inconclusive)

Cc1ccccc1-c1cncnc1N1CCN(C)CC1
AC50 (Cytochrome P450 2C19; read-out: AC50): 39.8 µM (inconclusive)
AC50 (Cytochrome P450 1A2): 15.8 µM (inconclusive)

Cn1cnc([N+](=O)[O-])c1SCC(=O)O
AC50 (Cytochrome P450 2C19): inconclusive

O=S(=O)(NC1CCCCC1N1CCN(c2ccccc2F)CC1)c1ccccc1 (stereo unspecified)
AC50 (Paired box protein Pax-8): 23.1 µM (active)

COC(=O)C1=C(c2ccc(F)cc2OCc2ccccc2)C[C@@H]2CC[C@H]1N2C(=O)NCc1ccc2[nH]ccc2c1
AC50 (Paired box protein Pax-8): 18.2 µM (active)

CC(C)(C)COS(=O)OCC(C)(C)C
AC50 (Cytochrome P450 2C19): inconclusive

c1ccc(N2OCC3Cn4c(nc5ccccc54)C32)cc1 (stereo unspecified)
EC50 (H4): 44.2 µM (active)
EC50 [1]: 30.3 µM (active)
EC50 [2]: 8.69 µM (active)
